{"source": "EPA's ToxValDB 9.5 (doi:10.2903/j.efsa.2009.193r)", "key": {"[1]": {"tested_on": "Aphidius rhopalosiphi", "assay": "LR50; higher = less toxic", "settings": "not reported; mortality"}, "[2]": {"tested_on": "Anas platyrhynchos", "settings": "short-term; oral; feed; mortality"}, "[3]": {"tested_on": "Lepomis macrochirus", "settings": "acute; duration: 96 hours; mortality"}, "[4]": {"tested_on": "Coturnix japonica"}, "[5]": {"tested_on": "Tagia sp.", "settings": "acute; duration: 14 days; mortality"}, "[6]": {"tested_on": "Folsomia candida", "settings": "chronic/long-term; duration: 28 days; mortality"}, "[7]": {"tested_on": "Apis mellifera", "settings": "acute; duration: 48 hours; dermal; mortality"}, "[8]": {"tested_on": "Rattus norvegicus"}}}
{"compound": "[O-][n+]1nc(-n2ccnc2)nc2ccc(Cl)cc21", "note": "[Triazoxide]", "values": [{"measurement": "LR50", "setting": "[1]", "result": "> 5.13", "unit": "g/ha"}, {"measurement": "LD50", "setting": "[2]", "result": 268, "unit": "mg/kg-day"}, {"measurement": "LC50", "setting": "[3]", "result": 0.077, "unit": "µg/mL"}, {"measurement": "LD50", "setting": "[4]; acute, oral, mortality", "result": 90, "unit": "mg/kg-day"}, {"measurement": "NOEC", "setting": "[4]; reproduction developmental, duration: 6 weeks", "result": 11.7, "unit": "mg/kg-day"}, {"measurement": "LC50", "setting": "[5]", "result": "> 1000", "unit": "mg/kg"}, {"measurement": "NOEC", "setting": "[6]", "result": 500, "unit": "mg/kg"}, {"measurement": "LD50", "setting": "[7]", "result": "> 200", "unit": "µg/piece"}, {"measurement": "LD50", "setting": "[8]; acute, oral, mortality", "result": 98, "unit": "mg/kg-day"}, {"measurement": "LOAEL", "setting": "[8]; chronic, duration: 2 years, oral, diet, hematological", "result": 0.05, "unit": "mg/kg-day"}, {"measurement": "NOAEL", "setting": "[8]; reproduction developmental, organ weight", "result": 0.11, "unit": "mg/kg-day"}, {"measurement": "NOAEL", "setting": "[8]; reproduction developmental, reproduction", "result": 2.04, "unit": "mg/kg-day"}, {"measurement": "NOAEL", "setting": "[8]; short-term, duration: 28 days, oral, hematological", "result": 1.5, "unit": "mg/kg-day"}, {"measurement": "NOAEL", "setting": "[8]; subchronic, duration: 90 days, oral, hematological", "result": 0.21, "unit": "mg/kg-day"}]}
